Laboratory results: patent US10485235B2, “Aryloxypyrimidinyl ethers as herbicides” (FMC Corporation, priority 2015, dated 2019)

Legend:
Type in all cases: in vivo
[1] = system: pigweed (Amaranthus retroflexus); test: Test A postemergence, pigweed
Method in brief: (§1)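 Injury was assessed visually about ten days after application, relative to untreated plants, with 0 meaning no effect and 100 complete control. Treatments were soil-directed sprays after sowing (pre) or sprays on seedlings at one to two leaves (post), in loam soil/sand.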

[2] = system: ryegrass, Italian (Italian ryegrass, Lolium multiflorum); test: Test A postemergence, Italian ryegrass
Method in brief: as §1

[3] = system: ryegrass, Italian (Italian ryegrass, Lolium multiflorum); test: Test A preemergence, Italian ryegrass; settings: Preemergence, 0 to 100 scale (0 no effect, 100 complete control)
Method in brief: as §1

[4] = system: ducksalad (Heteranthera limosa); test: Test B flooded paddy test, ducksalad; settings: 250 g ai/ha, Flood; visual rating after 13 to 15 days; scale 0 to 100, 0 is no effect, 100 is complete control
Method in brief: (§2)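 Visual ratings, 0 = no effect to 100 = complete control, versus controls after 13 to 15 days in greenhouse. Test compounds were added to paddy water kept 3 cm over the soil surface, on plants at 2-leaf stage.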

[5] = system: sedge, umbrella (small-flower umbrella sedge, Cyperus difformis); test: Test B flooded paddy test, umbrella sedge; settings: 250 g ai/ha, Flood; visual rating after 13 to 15 days; scale 0 to 100, 0 is no effect, 100 is complete control
Method in brief: as §2

[6] = system: barnyardgrass (Echinochloa crus-galli); test: Test A preemergence, barnyardgrass; settings: Preemergence, 0 to 100 scale (0 no effect, 100 complete control)
Method in brief: as §1

[7] = system: pigweed (Amaranthus retroflexus); test: Test A preemergence, pigweed; settings: Preemergence, 0 to 100 scale (0 no effect, 100 complete control)
Method in brief: as §1

[8] = system: wheat (Triticum aestivum); test: Test A postemergence, wheat
Method in brief: as §1

[9] = system: ragweed (common ragweed, Ambrosia elatior); test: Test A preemergence, ragweed; settings: Preemergence, 0 to 100 scale (0 no effect, 100 complete control)
Method in brief: as §1

[10] = system: rice (Oryza sativa); test: Test B flooded paddy test, rice; settings: 250 g ai/ha, Flood; visual rating after 13 to 15 days; scale 0 to 100, 0 is no effect, 100 is complete control
Method in brief: as §2

[11] = system: barnyardgrass (Echinochloa crus-galli); test: Test B flooded paddy test, barnyardgrass; settings: 250 g ai/ha, Flood; visual rating after 13 to 15 days; scale 0 to 100, 0 is no effect, 100 is complete control
Method in brief: as §2

[12] = system: galium (catchweed bedstraw, Galium aparine); test: Test A postemergence, galium
Method in brief: as §1

[13] = system: barnyardgrass (Echinochloa crus-galli); test: Test A postemergence, barnyardgrass
Method in brief: as §1

[14] = system: blackgrass (Alopecurus myosuroides); test: Test A postemergence, blackgrass
Method in brief: as §1

[15] = system: foxtail, giant (giant foxtail, Setaria faberii); test: Test A preemergence, giant foxtail; settings: Preemergence, 0 to 100 scale (0 no effect, 100 complete control)
Method in brief: as §1

[16] = system: ragweed (common ragweed, Ambrosia elatior); test: Test A postemergence, ragweed
Method in brief: as §1

[17] = system: foxtail, giant (giant foxtail, Setaria faberii); test: Test A postemergence, giant foxtail
Method in brief: as §1

[18] = system: corn (Zea mays); test: Test A postemergence, corn
Method in brief: as §1

[19] = system: kochia (Kochia scoparia); test: Test A preemergence, kochia; settings: Preemergence, 0 to 100 scale (0 no effect, 100 complete control)
Method in brief: as §1

[20] = system: kochia (Kochia scoparia); test: Test A postemergence, kochia
Method in brief: as §1

[21] = 125 g ai/ha, postemergence, 0 to 100 scale, 0 is no effect, 100 is complete control, approximately 10 days
[22] = Postemergence, 31 g ai/ha, 0 to 100 scale (0 no effect, 100 complete control)

SMILES | Plant response rating, Pigweed [1, 21] | Plant response rating, Pigweed [1, 22] | Plant response rating, Ryegrass, Italian [2, 21] | Plant response rating, Ryegrass, Italian [2, 22] | Plant response rating, Ryegrass, Italian ([3]; 31 g ai/ha) | Plant response rating, Ryegrass, Italian ([3]; 125 g ai/ha) | Plant response rating, Ducksalad [4] | Plant response rating, Sedge, Umbrella [5] | Plant response rating, Barnyardgrass ([6]; 31 g ai/ha) | Plant response rating, Barnyardgrass ([6]; 125 g ai/ha) | Plant response rating, Pigweed ([7]; 31 g ai/ha) | Plant response rating, Pigweed ([7]; 125 g ai/ha) | Plant response rating, Wheat [8, 21] | Plant response rating, Wheat [8, 22] | Plant response rating, Ragweed ([9]; 31 g ai/ha) | Plant response rating, Ragweed ([9]; 125 g ai/ha) | Plant response rating, Rice [10] | Plant response rating, Barnyardgrass [11] | Plant response rating, Galium [12, 21] | Plant response rating, Galium [12, 22] | other results
N#Cc1cccc(Oc2ncc(Cl)cn2)c1OCCCC(F)(F)F [Compound 72] | 60 | 30 | 10 | 0 | 0 | 20 | 100 | 90 | 10 | 80 | 0 | 60 | 0 | 0 | 0 | 0 | 0 | 25 | 60 | 20 | Plant response rating, Barnyardgrass [13, 21]: 30; Plant response rating, Barnyardgrass [13, 22]: 10; Plant response rating, Blackgrass [14, 21]: 20; Plant response rating, Blackgrass [14, 22]: 0; Plant response rating, Foxtail, Giant ([15]; 31 g ai/ha): 10; Plant response rating, Foxtail, Giant ([15]; 125 g ai/ha): 90; Plant response rating, Ragweed [16, 21]: 10; Plant response rating, Ragweed [16, 22]: 0; Plant response rating, Foxtail, Giant [17, 21]: 40; Plant response rating, Foxtail, Giant [17, 22]: 10; Plant response rating, Corn [18, 21]: 20; Plant response rating, Corn [18, 22]: 10; Plant response rating, Kochia ([19]; 31 g ai/ha): 0; Plant response rating, Kochia ([19]; 125 g ai/ha): 10; Plant response rating, Kochia [20, 21]: 70; Plant response rating, Kochia [20, 22]: 30
O=C(COc1c(Br)cccc1Oc1ncc(Cl)cn1)C(F)(F)C(F)(F)F [Compound 73] | 60 | 30 | 0 | 0 | 0 | 0 | 0 | 0 | 0 | 0 | 40 | 50 | 0 | 0 | 0 | 0 | 0 | 0 | 40 | 10 | Plant response rating, Barnyardgrass [13, 21]: 10; Plant response rating, Barnyardgrass [13, 22]: 0; Plant response rating, Blackgrass [14, 21]: 20; Plant response rating, Blackgrass [14, 22]: 0; Plant response rating, Foxtail, Giant ([15]; 31 g ai/ha): 0; Plant response rating, Foxtail, Giant ([15]; 125 g ai/ha): 0; Plant response rating, Ragweed [16, 21]: 0; Plant response rating, Ragweed [16, 22]: 0; Plant response rating, Foxtail, Giant [17, 21]: 10; Plant response rating, Foxtail, Giant [17, 22]: 0; Plant response rating, Corn [18, 21]: 10; Plant response rating, Corn [18, 22]: 0; Plant response rating, Kochia ([19]; 31 g ai/ha): 0; Plant response rating, Kochia ([19]; 125 g ai/ha): 0; Plant response rating, Kochia [20, 21]: 50; Plant response rating, Kochia [20, 22]: 0
N#Cc1cccc(Oc2ncc(Cl)cn2)c1OCC(=O)C(F)(F)C(F)(F)F [Compound 74] | 70 | 20 | 0 | 0 | 0 | 0 | 0 | 0 | 0 | 30 | 60 | 80 | 0 | 0 | 0 | 0 | 0 | 0 | 30 | 0 | Plant response rating, Barnyardgrass [13, 21]: 20; Plant response rating, Barnyardgrass [13, 22]: 0; Plant response rating, Blackgrass [14, 21]: 0; Plant response rating, Blackgrass [14, 22]: 0; Plant response rating, Foxtail, Giant ([15]; 31 g ai/ha): 0; Plant response rating, Foxtail, Giant ([15]; 125 g ai/ha): 70; Plant response rating, Ragweed [16, 21]: 20; Plant response rating, Ragweed [16, 22]: 20; Plant response rating, Foxtail, Giant [17, 21]: 40; Plant response rating, Foxtail, Giant [17, 22]: 0; Plant response rating, Corn [18, 21]: 20; Plant response rating, Corn [18, 22]: 0; Plant response rating, Kochia ([19]; 31 g ai/ha): 0; Plant response rating, Kochia ([19]; 125 g ai/ha): 0; Plant response rating, Kochia [20, 21]: 20; Plant response rating, Kochia [20, 22]: 0
CCC(=O)COc1c(C#N)cccc1Oc1ncc(Cl)cn1 [Compound 75] | 20 | 10 | 0 | 0 | 0 | 0 | 30 | 0 | 0 | 50 | 50 | 100 | 0 | 0 | 0 | 0 | 0 | 0 | 20 | 10 | Plant response rating, Barnyardgrass [13, 21]: 0; Plant response rating, Barnyardgrass [13, 22]: 0; Plant response rating, Blackgrass [14, 21]: 0; Plant response rating, Blackgrass [14, 22]: 0; Plant response rating, Foxtail, Giant ([15]; 31 g ai/ha): 0; Plant response rating, Foxtail, Giant ([15]; 125 g ai/ha): 40; Plant response rating, Ragweed [16, 21]: 0; Plant response rating, Ragweed [16, 22]: 0; Plant response rating, Foxtail, Giant [17, 21]: 0; Plant response rating, Foxtail, Giant [17, 22]: 0; Plant response rating, Corn [18, 21]: 10; Plant response rating, Corn [18, 22]: 0; Plant response rating, Kochia ([19]; 31 g ai/ha): 0; Plant response rating, Kochia ([19]; 125 g ai/ha): 60; Plant response rating, Kochia [20, 21]: 20; Plant response rating, Kochia [20, 22]: 10
